The assay addresses recombinant human PAI-1 (Homo sapiens, UniProt P05121). Put plainly: Test Example 2: Human PAI-1 Inhibitory Activity (pH 7.4 HEPES buffer, 10 minutes incubation with two-chain tPA). It counts as biochemical. The arrangement: purchased Molecular Innovations, Inc. Conditions: read-out: Inhibition Rate of PAI-1 Activity (%). The method, then: 0.1 M HEPES, 0.1 M NaCl. 1 mM EDTA. 0.1 % Polyethylene glycol 8,000 (Hampton Research Corporation),
2 mM Dimethyldecylphoshine oxide [Apo-10] (Fluka Corporation)

Sequence of recombinant human PAI-1 (P05121 24-402): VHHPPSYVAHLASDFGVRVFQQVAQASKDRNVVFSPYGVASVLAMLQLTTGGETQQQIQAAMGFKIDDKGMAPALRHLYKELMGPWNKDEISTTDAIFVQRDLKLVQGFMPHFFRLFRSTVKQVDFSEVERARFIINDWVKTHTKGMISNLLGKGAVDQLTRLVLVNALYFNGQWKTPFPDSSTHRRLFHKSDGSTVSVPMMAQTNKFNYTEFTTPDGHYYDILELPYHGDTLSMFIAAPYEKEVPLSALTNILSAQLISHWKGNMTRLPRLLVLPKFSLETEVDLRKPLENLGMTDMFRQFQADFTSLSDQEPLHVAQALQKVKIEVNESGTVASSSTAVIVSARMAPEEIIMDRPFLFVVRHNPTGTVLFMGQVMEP

For orientation: inhibition means the percentage by which the read-out fell short of the control. Turning to `CCC(CC)Oc1ccc(-c2ccc(OC(F)(F)F)cc2)cc1N(CCCCc1ccccc1)C(=O)C(=O)O` [Compound 369], the inhibition at 0.1 µM was 0%, the inhibition at 0.3 µM worked out at 8%, the inhibition at 1 µM came to 70% and the inhibition at 3 µM is 95%.

Turning to `CCCCC(Oc1cc(-c2ccc(OC(F)(F)F)cc2)ccc1OCCCCc1ccc(F)cc1)C(=O)O` (centres unmarked) [Compound 324], the inhibition at 0.1 µM worked out at 0%, the inhibition at 0.3 µM is 1%, the inhibition at 1 µM was determined as 66% and the inhibition at 3 µM stood at 97%.

As for `CC(C)(C)[C@H]1CC[C@@H](N(C(=O)C(=O)O)c2ccc(-c3ccc(OC(F)(F)F)cc3)cc2)CC1` [Compound 666], the inhibition at 0.1 µM stood at 0%, the inhibition at 0.3 µM is 21%, the inhibition at 1 µM was found to be 89% and the inhibition at 3 µM was found to be 98%.

Take `CN(CC(=O)O)c1ccc(-c2ccc(OC(F)(F)F)cc2)cc1Oc1ccc(C(C)(C)C)cc1` [Compound 534]: the inhibition at 0.1 µM is 13%, the inhibition at 0.3 µM came to 21%, the inhibition at 1 µM was found to be 84% and the inhibition at 3 µM was over 99%.

For the compound `CCCCCOc1ccc(-c2ccc(Oc3ccc(C(C)(C)C)cc3)c(OCC(=O)O)c2)cc1` [Compound 454], the inhibition at 0.1 µM was 11%, the inhibition at 0.3 µM came to 17%, the inhibition at 1 µM is over 99% and the inhibition at 3 µM was over 99%.

For `Cc1cccc(-c2ccc(Oc3ccc(C(C)(C)C)cc3)c(OCC(=O)O)c2)c1` [Compound 316], the inhibition at 0.1 µM amounted to 10%, the inhibition at 0.3 µM worked out at 8%, the inhibition at 1 µM came to 28% and the inhibition at 3 µM amounted to 84%.

For `CC(C)(C)c1ccc(Oc2cc(-c3cccc(OC(F)(F)F)c3)ccc2CCC(=O)O)cc1` [Compound 504], the inhibition at 0.1 µM came to 13%, the inhibition at 0.3 µM was determined as 26%, the inhibition at 1 µM is 91% and the inhibition at 3 µM was over 99%.

With `CC(C)(C)c1ccc(Oc2ccc(Nc3ccc(OC(F)(F)F)cc3)cc2CCC(=O)O)cc1` [Compound 432], the inhibition at 0.1 µM was determined as 4%, the inhibition at 0.3 µM was found to be 0%, the inhibition at 1 µM was 25% and the inhibition at 3 µM was found to be 97%.

In the case of `CC(C)c1ccc(Oc2cc(-c3ccc(OC(F)(F)F)cc3)ccc2CCC(=O)O)cc1` [Compound 510], the inhibition at 0.1 µM stood at 0%, the inhibition at 0.3 µM worked out at 8%, the inhibition at 1 µM is 84% and the inhibition at 3 µM is over 99%.

Consider `CC(C)(C)c1cccc(Oc2ccc(-c3ccc(OC(F)(F)F)cc3)cc2CCC(=O)O)c1` [Compound 438], for which the inhibition at 0.1 µM was 13%, the inhibition at 0.3 µM is 11%, the inhibition at 1 µM turned out to be 50% and the inhibition at 3 µM was over 99%.

In the case of `CC(C)(C)Oc1ccc(-c2ccc(OC(F)(F)F)cc2)cc1N(CCCCc1ccccc1)C(=O)C(=O)O` [Compound 373], the inhibition at 0.1 µM is 0%, the inhibition at 0.3 µM stood at 0%, the inhibition at 1 µM was determined as 28% and the inhibition at 3 µM was 90%.

`CN(C(=O)c1ccc(OC(F)(F)F)cc1)c1ccc(OCc2ccc(C(C)(C)C)cc2)c(CCC(=O)O)c1` [Compound 416]: the inhibition at 1 µM came out at 26%, the inhibition at 3 µM was found to be 54%, the inhibition at 10 µM was over 99% and the inhibition at 25 µM was over 99%.

Turning to `O=C(O)/C=C/c1ccc(-c2ccc(OC(F)(F)F)cc2)cc1OCCCSc1ccccc1` [Compound 489], the inhibition at 0.1 µM stood at 12%, the inhibition at 0.3 µM was determined as 14%, the inhibition at 1 µM came out at 69% and the inhibition at 3 µM is over 99%.

As to `CC(C)(C)c1ccc(Oc2cc(Oc3ccc(OC(F)(F)F)cc3)ccc2OCC(=O)O)cc1` [Compound 538], the inhibition at 0.1 µM stood at 0%, the inhibition at 0.3 µM came out at 12%, the inhibition at 1 µM was 87% and the inhibition at 3 µM came out at 98%.

With `CCCCC(C(=O)O)N(Cc1ccc(C(C)(C)C)cc1)c1cccc(-c2ccc(OC(F)(F)F)cc2)c1` (centres unmarked) [Compound 641], the inhibition at 0.1 µM is 9%, the inhibition at 0.3 µM was found to be 53%, the inhibition at 1 µM is 95% and the inhibition at 3 µM turned out to be 95%.

With `CCCCCOc1ccc(-c2ccc(OCC(=O)O)c(Oc3ccc(C(C)(C)C)cc3)c2)cc1` [Compound 440], the inhibition at 0.1 µM turned out to be 0%, the inhibition at 0.3 µM came out at 3%, the inhibition at 1 µM was 96% and the inhibition at 3 µM is over 99%.

On to `CCCCCOc1ccc(-c2ccc(Cl)cc2)cc1N(CCCCc1ccccc1)C(=O)C(=O)O` [Compound 361], for which the inhibition at 0.1 µM was 9%, the inhibition at 0.3 µM is 5%, the inhibition at 1 µM was determined as 68% and the inhibition at 3 µM is 97%.

In the case of `CCCCC(CC(=O)O)c1cc(-c2ccc(OC(F)(F)F)cc2)ccc1Oc1ccc(C(C)(C)C)cc1` (centres unmarked) [Compound 422], the inhibition at 0.1 µM is 12%, the inhibition at 0.3 µM was determined as 24%, the inhibition at 1 µM was 72% and the inhibition at 3 µM was over 99%.

`CCCCc1ccc(Oc2cc(-c3ccc(OC(F)(F)F)cc3)ccc2OCC(=O)O)cc1` [Compound 481]: the inhibition at 0.1 µM was 19%, the inhibition at 0.3 µM turned out to be 16%, the inhibition at 1 µM is 70% and the inhibition at 3 µM was over 99%.

Take `CC(C)(C)c1ccc(CN(C(=O)C(=O)O)c2ccc(N3CCN(c4ccc(OC(F)(F)F)cc4)CC3)cc2)cc1` [Compound 628]: the inhibition at 1 µM is 40%, the inhibition at 3 µM is over 99%, the inhibition at 10 µM is over 99% and the inhibition at 25 µM stood at 90%.

For `CCCCC(Oc1ccc(-c2cccc(C)c2)cc1Oc1ccc(C(C)(C)C)cc1)C(=O)O` (centres unmarked) [Compound 321], the inhibition at 0.1 µM amounted to 3%, the inhibition at 0.3 µM was determined as 15%, the inhibition at 1 µM worked out at 86% and the inhibition at 3 µM was 94%.

`CC(C)c1ccc(-c2ccc(/C=C/C(=O)O)c(Oc3ccc(C(C)(C)C)cc3)c2)cc1` [Compound 518]: the inhibition at 0.1 µM came to 14%, the inhibition at 0.3 µM was determined as 54%, the inhibition at 1 µM was over 99% and the inhibition at 3 µM was over 99%.

As for `CCCCCCC(Oc1cc(-c2ccc(OC(F)(F)F)cc2)ccc1Oc1ccc(C(F)(F)F)cc1)C(=O)O` (centres unmarked) [Compound 327], the inhibition at 0.1 µM was 0%, the inhibition at 0.3 µM worked out at 15%, the inhibition at 1 µM came to 94% and the inhibition at 3 µM stood at 95%.

Consider `Cc1ccc(-c2ccc(OCC(=O)O)c(Oc3ccc(C(C)(C)C)cc3)c2)cc1` [Compound 444], for which the inhibition at 0.1 µM turned out to be 0%, the inhibition at 0.3 µM amounted to 0%, the inhibition at 1 µM stood at 11% and the inhibition at 3 µM was found to be 96%.

Regarding `CC(Oc1cc(-c2ccc(OC(F)(F)F)cc2)ccc1/C=C/C(=O)O)c1ccccc1` (centres unmarked) [Compound 500], the inhibition at 0.1 µM amounted to 19%, the inhibition at 0.3 µM was 14%, the inhibition at 1 µM worked out at 25% and the inhibition at 3 µM came to 80%.

As for `CC(C)(C)c1ccc(Oc2cc(-c3ccc4ccccc4c3)ccc2CCC(=O)O)cc1` [Compound 470], the inhibition at 0.1 µM worked out at 3%, the inhibition at 0.3 µM turned out to be 16%, the inhibition at 1 µM turned out to be 87% and the inhibition at 3 µM is over 99%.

Consider `CC(C)c1ccc(Oc2cc(-c3ccc(OC(F)(F)F)cc3)ccc2/C=C/C(=O)O)cc1` [Compound 509], for which the inhibition at 0.1 µM was 1%, the inhibition at 0.3 µM amounted to 22%, the inhibition at 1 µM is 96% and the inhibition at 3 µM was over 99%.

Turning to `CCCCC(Oc1cc(-c2ccc(OC(F)(F)F)cc2)ccc1OCCCCc1ccc(Cl)cc1)C(=O)O` (centres unmarked) [Compound 325], the inhibition at 0.1 µM came out at 11%, the inhibition at 0.3 µM came out at 5%, the inhibition at 1 µM was 85% and the inhibition at 3 µM came to 91%.

`CCCCCCC(Oc1cc(-c2ccc(OC(F)(F)F)cc2)ccc1Oc1ccc(C(C)(C)C)cc1)C(=O)O` (centres unmarked) [Compound 323]: the inhibition at 0.1 µM amounted to 19%, the inhibition at 0.3 µM worked out at 16%, the inhibition at 1 µM is 91% and the inhibition at 3 µM is 82%.

Regarding `O=C(O)/C=C/c1ccc(-c2ccc(OC(F)(F)F)cc2)cc1OCCCOCc1ccccc1` [Compound 487], the inhibition at 0.1 µM turned out to be 0%, the inhibition at 0.3 µM was found to be 3%, the inhibition at 1 µM worked out at 26% and the inhibition at 3 µM was found to be 98%.

Regarding `CCCCCOc1cc(-c2cccc(OC(F)(F)F)c2)ccc1N(CCCCc1ccccc1)C(=O)C(=O)O` [Compound 393], the inhibition at 0.1 µM stood at 8%, the inhibition at 0.3 µM is 19%, the inhibition at 1 µM came out at 75% and the inhibition at 3 µM stood at 97%.

In the case of `CCCCCCCOc1cc(N(CCCCc2ccccc2)C(=O)C(=O)O)ccc1-c1ccc(OC(F)(F)F)cc1` [Compound 650], the inhibition at 0.1 µM came out at 16%, the inhibition at 0.3 µM is 40%, the inhibition at 1 µM was over 99% and the inhibition at 3 µM was over 99%.

`CCCCCOc1ccc(-c2ccc(C(C)C)cc2)cc1N(CCCCc1ccccc1)C(=O)C(=O)O` [Compound 678]: the inhibition at 0.1 µM is 19%, the inhibition at 0.3 µM stood at 33%, the inhibition at 1 µM came out at 97% and the inhibition at 3 µM was 94%.

For `CCCCCOc1cc(-c2ccc(C(F)(F)F)cc2)ccc1N(CCCCc1ccccc1)C(=O)C(=O)O` [Compound 392], the inhibition at 0.1 µM was 7%, the inhibition at 0.3 µM was determined as 14%, the inhibition at 1 µM is 77% and the inhibition at 3 µM is over 99%.

As to `CCCCCOc1ccc(Oc2ccc(OC(F)(F)F)cc2)cc1N(CCCCc1ccccc1)C(=O)C(=O)O` [Compound 363], the inhibition at 0.1 µM amounted to 2%, the inhibition at 0.3 µM came to 4%, the inhibition at 1 µM was determined as 72% and the inhibition at 3 µM is over 99%.

For the origin of these results see EP2272817A1, “PAI-1 INHIBITOR” (Institute of Medicinal Molecular Design, Inc., priority 2008, dated 2009).
